Test results taken from PubChem BioAssay AID1963985 (Molecular Pharmacology Branch, DTP, NCI, 2024).

System: 252836-082-R-J2-PDC tumor spheroids, viability
Assay: Anticancer human tumor 252836-082-R-J2-PDC patient-derived head and neck squamous cell carcinoma cell line growth inhibition [PI3K]
Details: spheroids with HUVEC and MSC; for viability, T/C: stronger effect = lower value
Procedure, shortened: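 Tumor cells were combined with HUVEC and MSCs into spheroids, then dosed with PI3K-inhibitor combinations over half-log ranges capped near clinical Cmax or 10 microM.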

[1] = curve of first compound, second compound 0.00316 µM
[2] = curve of first compound, second compound 0.01 µM
[3] = curve of first compound, second compound 0.0316 µM
[4] = curve of first compound, second compound 0.1 µM
[5] = curve of first compound, second compound 0.316 µM
[6] = curve of first compound, second compound 1 µM
[7] = second compound 0.00316 µM, first compound 0.0316 µM
[8] = second compound 0.00316 µM, first compound 0.1 µM
[9] = second compound 0.00316 µM, first compound 0.316 µM
[10] = second compound 0.00316 µM, first compound 1 µM
[11] = second compound 0.00316 µM, first compound 3.16 µM
[12] = second compound 0.00316 µM, first compound 10 µM
[13] = second compound 0.01 µM, first compound 0.0316 µM
[14] = second compound 0.01 µM, first compound 0.1 µM
[15] = second compound 0.01 µM, first compound 0.316 µM
[16] = second compound 0.01 µM, first compound 1 µM
[17] = second compound 0.01 µM, first compound 3.16 µM
[18] = second compound 0.01 µM, first compound 10 µM
[19] = second compound 0.0316 µM, first compound 0.0316 µM
[20] = second compound 0.0316 µM, first compound 0.1 µM
[21] = second compound 0.0316 µM, first compound 0.316 µM
[22] = second compound 0.0316 µM, first compound 1 µM
[23] = second compound 0.0316 µM, first compound 3.16 µM
[24] = second compound 0.0316 µM, first compound 10 µM
[25] = second compound 0.1 µM, first compound 0.0316 µM
[26] = second compound 0.1 µM, first compound 0.1 µM
[27] = second compound 0.1 µM, first compound 0.316 µM
[28] = second compound 0.1 µM, first compound 1 µM
[29] = second compound 0.1 µM, first compound 3.16 µM
[30] = second compound 0.1 µM, first compound 10 µM
[31] = second compound 0.316 µM, first compound 0.0316 µM
[32] = second compound 0.316 µM, first compound 0.1 µM
[33] = second compound 0.316 µM, first compound 0.316 µM
[34] = second compound 0.316 µM, first compound 1 µM
[35] = second compound 0.316 µM, first compound 3.16 µM
[36] = second compound 0.316 µM, first compound 10 µM
[37] = second compound 1 µM, first compound 0.0316 µM
[38] = second compound 1 µM, first compound 0.1 µM
[39] = second compound 1 µM, first compound 0.316 µM
[40] = second compound 1 µM, first compound 1 µM
[41] = second compound 1 µM, first compound 3.16 µM
[42] = second compound 1 µM, first compound 10 µM
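Further: spheroids exposed to agents for seven days before readout.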
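Wherever viability, T/C is given: percent of vehicle DMSO control viability so 100% = untreated growth.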

Structure (SMILES): Cn1nccc1Nc1nccc(-c2ccn(C(CO)c3ccc(Cl)c(F)c3)c(=O)c2)n1 (stereo not drawn) + CC(Nc1ccc2c(c1)OCCn1cc(N3C(=O)OCC3C(F)F)nc1-2)C(N)=O
- IC50 [1]: > 10000 nM
- IC50 [2]: > 10000 nM
- IC50 [3]: > 10000 nM
- IC50 [4]: 5840 nM
- IC50 [5]: 1070 nM
- IC50 [6]: < 31.6 nM
- viability, T/C [7]: 80.8%
- viability, T/C [8]: 90%
- viability, T/C [9]: 92.5%
- viability, T/C [10]: 85.4%
- viability, T/C [11]: 72.5%
- viability, T/C [12]: 61.9%
- viability, T/C [13]: 85.5%
- viability, T/C [14]: 78.7%
- viability, T/C [15]: 81%
- viability, T/C [16]: 89.7%
- viability, T/C [17]: 82.5%
- viability, T/C [18]: 58.1%
- viability, T/C [19]: 69.4%
- viability, T/C [20]: 74.2%
- viability, T/C [21]: 69.8%
- viability, T/C [22]: 75.8%
- viability, T/C [23]: 83.8%
- viability, T/C [24]: 44.6%
- viability, T/C [25]: 70.4%
- viability, T/C [26]: 58%
- viability, T/C [27]: 64.1%
- viability, T/C [28]: 64.6%
- viability, T/C [29]: 60.9%
- viability, T/C [30]: 40.4%
- viability, T/C [31]: 49.5%
- viability, T/C [32]: 50.3%
- viability, T/C [33]: 55.5%
- viability, T/C [34]: 50.1%
- viability, T/C [35]: 40.7%
- viability, T/C [36]: 28.6%
- viability, T/C [37]: 39.1%
- viability, T/C [38]: 43%
- viability, T/C [39]: 38.7%
- viability, T/C [40]: 38.6%
- viability, T/C [41]: 31.9%
- viability, T/C [42]: 22.6%

Structure (SMILES): Cn1ncc(Cl)c1-c1cc(C(=O)NC(CN)Cc2cccc(F)c2)sc1Cl (stereo not drawn)
- viability, T/C (compound 0.0316 µM): 84.6% [middle of 4 runs]
- viability, T/C (compound 0.1 µM): 85% [middle of 4 runs]
- viability, T/C (compound 0.316 µM): 66.9% [middle of 4 runs]
- viability, T/C (compound 1 µM): 42.4% [middle of 4 runs]
- viability, T/C (compound 3.16 µM): 30.8% [middle of 4 runs]
- viability, T/C (compound 10 µM): 12.7% [middle of 4 runs]
- IC50 (curve of compound): 684 nM [middle of 4 runs]

Structure (SMILES): CC(C)NCC(C(=O)N1CCN(c2ncnc3c2C(C)CC3O)CC1)c1ccc(Cl)cc1 (stereo not drawn) + CC(Nc1ncnc2nc[nH]c12)c1cc2cccc(Cl)c2c(=O)n1-c1ccccc1
- IC50 [3]: 1150 nM
- IC50 [4]: 1100 nM
- IC50 [5]: 991 nM
- IC50 [6]: 980 nM
- IC50 (curve of first compound, second compound 3.16 µM): 916 nM
- IC50 (curve of first compound, second compound 10 µM): 742 nM
- viability, T/C [19]: 99.4%
- viability, T/C [20]: 89.4%
- viability, T/C [21]: 76.7%
- viability, T/C [22]: 54.5%
- viability, T/C [23]: 28.6%
- viability, T/C [24]: 22.1%
- viability, T/C [25]: 97.9%
- viability, T/C [26]: 81.1%
- viability, T/C [27]: 77.4%
- viability, T/C [28]: 49%
- viability, T/C [29]: 33.2%
- viability, T/C [30]: 21.7%
- viability, T/C [31]: 83.3%
- viability, T/C [32]: 83.1%
- viability, T/C [33]: 85%
- viability, T/C [34]: 48.3%
- viability, T/C [35]: 38.1%
- viability, T/C [36]: 20.7%
- viability, T/C [37]: 95.4%
- viability, T/C [38]: 98.1%
- viability, T/C [39]: 65.3%
- viability, T/C [40]: 51.5%
- viability, T/C [41]: 33.6%
- viability, T/C [42]: 20.5%
- viability, T/C (second compound 3.16 µM, first compound 0.0316 µM): 75.7%
- viability, T/C (second compound 3.16 µM, first compound 0.1 µM): 74.9%
- viability, T/C (second compound 3.16 µM, first compound 0.316 µM): 75%
- viability, T/C (second compound 3.16 µM, first compound 1 µM): 46.5%
- viability, T/C (second compound 3.16 µM, first compound 3.16 µM): 35.4%
- viability, T/C (second compound 3.16 µM, first compound 10 µM): 24.2%
- viability, T/C (second compound 10 µM, first compound 0.0316 µM): 71.3%
- viability, T/C (second compound 10 µM, first compound 0.1 µM): 69.2%
- viability, T/C (second compound 10 µM, first compound 0.316 µM): 59.6%
- viability, T/C (second compound 10 µM, first compound 1 µM): 46.3%
- viability, T/C (second compound 10 µM, first compound 3.16 µM): 30.4%
- viability, T/C (second compound 10 µM, first compound 10 µM): 16.6%

Structure (SMILES): CC1(C)CCC(Nc2ncc(C(F)(F)F)c(-c3c[nH]c4c(P(C)(C)=O)c(C#N)ccc34)n2)CN1 (stereo not drawn) + CC(Nc1ccc2c(c1)OCCn1cc(N3C(=O)OCC3C(F)F)nc1-2)C(N)=O
- IC50 [1]: < 31.6 nM
- IC50 [2]: < 31.6 nM
- IC50 [3]: < 31.6 nM
- IC50 [4]: < 31.6 nM
- IC50 [5]: < 31.6 nM
- IC50 [6]: < 31.6 nM
- viability, T/C [7]: 27.2%
- viability, T/C [8]: 24.2%
- viability, T/C [9]: 29.6%
- viability, T/C [10]: 24.5%
- viability, T/C [11]: 26.2%
- viability, T/C [12]: 5.32%
- viability, T/C [13]: 27.5%
- viability, T/C [14]: 27.6%
- viability, T/C [15]: 25.7%
- viability, T/C [16]: 25.6%
- viability, T/C [17]: 23.5%
- viability, T/C [18]: 4.5%
- viability, T/C [19]: 26.8%
- viability, T/C [20]: 29.1%
- viability, T/C [21]: 22.2%
- viability, T/C [22]: 23.8%
- viability, T/C [23]: 27.3%
- viability, T/C [24]: 4.59%
- viability, T/C [25]: 24.1%
- viability, T/C [26]: 20.6%
- viability, T/C [27]: 22.1%
- viability, T/C [28]: 24.8%
- viability, T/C [29]: 22.9%
- viability, T/C [30]: 3.21%
- viability, T/C [31]: 20.6%
- viability, T/C [32]: 21%
- viability, T/C [33]: 21.1%
- viability, T/C [34]: 19.5%
- viability, T/C [35]: 20.2%
- viability, T/C [36]: 3.5%
- viability, T/C [37]: 18.4%
- viability, T/C [38]: 19.3%
- viability, T/C [39]: 16.6%
- viability, T/C [40]: 19.6%
- viability, T/C [41]: 18.2%
- viability, T/C [42]: 2.31%
